Source: patent US7442713B2, “2-thio-substituted imidazole derivatives and their use in pharmaceutics” (Merckle GmbH, priority 2002, dated 2008)

Assays:
[1] = test system: TNFα; assay: In vitro test of cytokine release, LPS-stimulated human whole blood / PBMCs: TNFα; assay type: cell-based; details: LPS stimulation, ELISA; for IC50: Homo sapiens, PBMC, read-out: Cytokines IC50 TNF α
Protocol: (§1) The compounds or compositions according to the invention can be administered to mammals (man or animal) in a dose of from about 0.5 mg to 100 mg per kg of body weight per day. They may be administered in one individual dose or in a plurality of doses. The activity spectrum of the compounds as inhibitors of cytokine release was examined using the test systems below, as described by C. Donat and S. Laufer in Arch. Pharm. Pharm. Med. Chem. 333, Suppl. 1, 1-40, 2000.
(§2) In vitro Test with Human Whole Blood
(§3) The test substance is added to samples of human potassium-EDTA whole blood (of 400 μl each) and the samples are preincubated in a CO2 incubator (5% CO2; 95% moisture-saturated air) at 37° C. for 15 min. The samples are then stimulated with 1 μg/ml of LPS (E. coli 026:B6) at 37° C. in a CO2 incubator (5% CO2; 95% moisture-saturated air) for 4 hours. The reaction is stopped by placing the samples on ice, adding DPBS buffer and then centrifuging at 1000*g for 15 min. The amount of IL-1β and TNFα in the plasma supernatant is then determined by ELISA.
(§4) 1) The mononuclear cells (PBMCs) from human potassium-EDTA whole blood, diluted 1:3, are isolated by density gradient centrifugation (Histopaque®-1.077). The cells are washed twice with DPBS buffer, resuspended in macrophage SFM medium and adjusted to a cell count of 1*10^6 cells/ml.
(§5) The resulting PBMCs suspension (samples of in each case 390 μl) and the test substance are preincubated at 37° C. in a CO2 incubator (5% CO2; 95% moisture-saturated air) for 15 min. The samples are then stimulated with in each case […] of LPS (E. coli 026:B6) at 37° C. in a CO2 incubator (5% CO2; 95% moisture-saturated air) for 4 hours. The reaction is stopped by placing the samples on ice, adding DPBS buffer and then centrifuging at 15 880*g for 12 min. The amount of IL-1β and TNFα in the plasma supernatant is then determined by ELISA.

[2] = test system: IL-1β; assay: In vitro test of cytokine release, LPS-stimulated human whole blood / PBMCs: IL-1β; assay type: cell-based; details: PBMC, LPS stimulation, ELISA, read-out: Cytokines IC50 IL-1β
Protocol: as §1, §2, §3, §4, §5

[3] = target: activated p38α (Homo sapiens, UniProt Q16539); assay: Kinase assay (p38α, ATF2 substrate, ELISA read-out); assay type: biochemical; details: Table 1; for IC50: 100 μM ATP, 10 ng activated p38α, read-out: Kinase assay IC50
Chain of activated p38α (Q16539 whole entry): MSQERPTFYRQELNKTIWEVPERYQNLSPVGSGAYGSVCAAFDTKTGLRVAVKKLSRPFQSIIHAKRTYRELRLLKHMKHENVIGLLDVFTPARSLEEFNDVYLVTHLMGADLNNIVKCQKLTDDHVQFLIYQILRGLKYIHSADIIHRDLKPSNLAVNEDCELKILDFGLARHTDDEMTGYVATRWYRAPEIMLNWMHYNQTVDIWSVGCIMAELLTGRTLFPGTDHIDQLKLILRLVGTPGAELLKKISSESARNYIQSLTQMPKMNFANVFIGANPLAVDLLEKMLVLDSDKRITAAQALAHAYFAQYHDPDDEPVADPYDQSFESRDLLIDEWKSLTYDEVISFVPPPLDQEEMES
Protocol: At 37° C., microtiter plates were coated with 50 μl of ATF2 solution ([…]) for one hour. The plates were washed three times with water, and 50 μl of kinase mixture (50 mM tris-HCl, 10 mM MgCl2, 10 mM β-glycerol phosphate, 10 μg/ml BSA, 1 mM DTT, 100 μM ATP, 100 μM Na3VO4, 10 ng of activated p38α) with or without inhibitor were then added into the wells, and the plates were incubated at 37° C. for 1 hour. The plates were washed three times and then incubated at 37° C. with phosphorus-ATF-2 antibodies for one hour. Once more, the plates were washed three times, and goat-anti-rabbit IgG labeled with alkaline phosphatase was then added at 37° C. for one hour (to immobilize antibody-phosphorylated protein-substrate complex). After washing three times, the alkaline phosphatase-substrate solution (3 mM 4-NPP, 50 mM NaHCO3, 50 mM MgCl2, 100 μl/well) was added at 37° C. for 1.5 hours. The formation of 4-nitrophenolate was measured at 405 nm using a microtiter plate reader. The IC50 values were calculated.

**Q.** With `O=C1OCCC1Sc1nc(-c2ccc(F)cc2)c(-c2ccncc2)[nH]1` (centres unmarked) [Example 23, 5-(4-Fluorophenyl)-4-(4-pyridinyl)imidazole-2-thio-3-butyrolactone] as the compound, how does the IC50 [1] read?
**A.** 3800 nM

**Q.** What about the IC50 [2] of the same compound?
**A.** 190 nM

**Q.** Which results are given for `CCOC(=O)C(Sc1nc(-c2ccc(F)cc2)c(-c2ccncc2)[nH]1)C(=O)OCC` [Example 22, Diethyl 5-(4-fluorophenyl)-4-(4-pyridinyl)imidazole-2-thio-2-malonate]?
**A.** IC50 [1]: 360 nM; IC50 [2]: 540 nM

**Q.** How did the IC50 [1] turn out when `OCC(O)CSc1nc(-c2ccc(F)cc2)c(-c2ccncc2)[nH]1` (centres unmarked) [Example 21, 5-(4-Fluorophenyl)-4-(4-pyridinyl)imidazole-2-thio-1-propane-2,3-diol] was run?
**A.** 900 nM

**Q.** What about the IC50 [2] of the same compound?
**A.** 150 nM

**Q.** For `CN(C)C(=O)CSc1nc(-c2ccc(F)cc2)c(-c2ccncc2)n1C` [Example 27, 1-[4-(4-Fluorophenyl)-1-methyl-5-pyridin-4-yl-1H-imidazol-2-ylsulfanyl]-N,N-dimethylacetamide], which IC50 [1] is on record?
**A.** 3000 nM

**Q.** What about the “Kinase assay % at 10^−5 mol/l” value ([3]; at 10^−5 mol/l) of the same compound?
**A.** 29.0% at10^−5 mol/l

**Q.** And the IC50 [2]?
**A.** 150 nM

**Q.** How did the “Cytokines TNF α % at 10^−5 mol/l” value [1] turn out when `COC(=O)CCCCSc1nc(-c2ccc(F)cc2)c(-c2ccncc2)[nH]1` [Example 25, Methyl 5-(4-fluorophenyl)-4-(4-pyridinyl)imidazole-2-thio-5-valerate] was run?
**A.** 28% at10^−5 mol/l

**Q.** And the IC50 [2]?
**A.** 1450 nM

**Q.** With `COC(=O)/C=C/CSc1nc(-c2ccc(F)cc2)c(-c2ccncc2)[nH]1` [Example 25b, Methyl 5-(4-fluorophenyl)-4-(4-pyridinyl)imidazole-2-thio-4-crotonate] as the compound, how does the IC50 [1] read?
**A.** 1100 nM

**Q.** What about the IC50 [2] of the same compound?
**A.** 650 nM

**Q.** How did the IC50 [1] turn out when `CCOC(=O)CSc1nc(-c2ccc(F)cc2)c(-c2ccncc2)[nH]1` [Example 25e, Ethyl 5-(4-fluorophenyl)-4-(4-pyridinyl)imidazole-2-thio-2-acetate] was run?
**A.** 9500 nM

**Q.** And the IC50 [3]?
**A.** 975 nM

**Q.** And the IC50 [2]?
**A.** 700 nM

**Q.** For `O=C(O)C(CCO)Sc1nc(-c2ccc(F)cc2)c(-c2ccncc2)[nH]1` (centres unmarked) [Example 24, 5-(4-Fluorophenyl)-4-(4-pyridinyl)imidazole-2-thio-2-butanoic acid-4-ol], which IC50 [1] is on record?
**A.** 3800 nM

**Q.** What about the IC50 [2] of the same compound?
**A.** 140 nM

**Q.** How did the IC50 [1] turn out when `COC(=O)CSc1nc(-c2ccc(F)cc2)c(-c2ccncc2)[nH]1` [Example 25c, Methyl 5-(4-fluorophenyl)-4-(4-pyridinyl)imidazole-2-thio-2-acetate] was run?
**A.** 2100 nM

**Q.** And the IC50 [3]?
**A.** 750 nM

**Q.** And the IC50 [2]?
**A.** 320 nM

**Q.** What does the source list for `COC(=O)CCCSc1nc(-c2ccc(F)cc2)c(-c2ccncc2)[nH]1` [Example 25a, Methyl 5-(4-fluorophenyl)-4-(4-pyridinyl)imidazole-2-thio-4-butyrate]?
**A.** Cytokines TNF α % at 10^−5 mol/l [1]: 38% at10^−5 mol/l; IC50 [2]: 750 nM
